Measured values reported in patent US5674909A, “Derivatives of 2-amino-1,2,3,4-tetrahydronaphthalene active on the cardiovascular system” (Zambon Group, priority 1994, dated 1997).

Legend:
[1] = target: T1, D2 -like (Rabbit Ear Artery) (Oryctolagus cuniculus, UniProt G1T1Q0); assay: D2-like activity in the Rabbit Ear Artery (REA) test; design: species or system New Zealand rabbit; settings: agonist activity at the peak of the effect; electrically stimulated
T1 construct: the central ear artery was dissected into 3 mm long rings; from tissue; host or cells: rabbit central ear artery rings (male New Zealand rabbits), electrically stimulated
Method: Arterial rings were prepared according to the method described by Steinsland et al., Science, 1978, 443, 199, modified as follows. Male New Zealand rabbits weighing 2.5-3 Kg were sacrificed by intravenous injection of an excess of pentobarbital sodium and exsanguinated. The two ears were taken away and the central ear artery was dissected into 3 mm long rings.
These preparations were set up in a 25 ml organ bath containing Krebs solution (mM/l): NaCl 118, KCl 4.7, CaCl2 2.5, MgSO4 1.2, NaHCO3 25, KH2 PO4 1.2, glucose 11.1, equilibrated with 95% 02 -5% CO2 and maintained at 35°±1° C.
Krebs solution was medicated with EDTA (10 μM) to prevent cathecolamine oxydation, desipramine (0.1 μM) and corticosterone (30 μM), to block neuronal and extraneuronal cathecolamine uptake. The preparations were electrically stimulated (10 Hz, 1 msec, 40-80 mA, 500 msec duration) at 5 minutes intervals.
(§1) The tested compounds were cumulatively administered.
(§2) Ref. A was used as reference substance.
(§3) Agonist activity evaluated at the peak of the effect and expressed as potency ratio (EC50 of Ref. A/EC50 of tested compound) is reported in table 2.

[2] = tested on: D1 -like (Rabbit Splenic Artery); assay: D1-like activity in the Rabbit Splenic Artery (RSA) test; settings: agonist activity at the peak of the effect; contracted with U46619 0.1 μM
Method: Arterial rings were prepared according to Semeraro et al., Naunyn. Schmied. Arch. Pharmacol., 1990, 342, 539.
The arterial preparations were contracted with U46619 (9,11-di-deoxy-11α,9α-epoxy-methanoprostaglandin F2α) at the submaximal concentration 0.1 μM.
as §1, §2, §3

T1 sequence (G1T1Q0 1-443): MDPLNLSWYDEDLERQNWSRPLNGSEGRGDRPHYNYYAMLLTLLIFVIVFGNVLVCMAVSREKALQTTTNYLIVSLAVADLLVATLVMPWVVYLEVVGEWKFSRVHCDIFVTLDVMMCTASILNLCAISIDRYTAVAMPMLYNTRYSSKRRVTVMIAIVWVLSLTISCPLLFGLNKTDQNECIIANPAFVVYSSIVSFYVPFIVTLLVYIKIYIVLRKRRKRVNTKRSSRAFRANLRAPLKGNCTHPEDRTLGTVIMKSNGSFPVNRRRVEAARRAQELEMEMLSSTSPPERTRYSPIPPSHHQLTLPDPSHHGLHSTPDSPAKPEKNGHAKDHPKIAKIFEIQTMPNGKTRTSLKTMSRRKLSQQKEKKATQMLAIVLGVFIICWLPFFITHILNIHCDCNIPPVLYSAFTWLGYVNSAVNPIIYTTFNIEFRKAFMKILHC

| SMILES | D2 -like (REA) potency ratio (EC50 of Ref. A/EC50 of tested compound) [1] | D1 -like (RSA) potency ratio (EC50 of Ref. A/EC50 of tested compound) [2] |
| --- | --- | --- |
| Br.Br.CCCN(CCCCCCNCCc1ccc(O)c(Cl)c1)[C@H]1CCc2c(ccc(O)c2O)C1 [Compound 11, (S)-N-propyl-N-[6-[2-(3-chloro-4-hydroxyphenyl)ethylamino]hexyl]-5,6-dihydroxy-1,2,3,4-tetrahydro-2-naphthylamine dihydrobromide] | 4 | 25 |
| Br.Br.CCCN(CCCCCCNCCc1ccc(O)c([N+](=O)[O-])c1)[C@H]1CCc2c(ccc(O)c2O)C1 [Compound 12, (S)-N-propyl-N-[6-[2-(3-nitro-4-hydroxyphenyl)ethylamino]hexyl]-5,6-dihydroxy-1,2,3,4-tetrahydro-2-naphthylamine dihydrobromide] | – | 5 |
| Br.Br.CCCN(CCCCCCNCCc1ccc(O)c(C)c1)[C@H]1CCc2c(ccc(O)c2O)C1 [Compound 14, (S)-N-propyl-N-[6-[2-(3-methyl-4-hydroxyphenyl)ethylamino]hexyl]-5,6-dihydroxy-1,2,3,4-tetrahydro-2-naphthylamine dihydrobromide] | 3 | 33 |
| Br.Br.CCCN(CCCCCCNCCc1cc(O)c(C)c(O)c1)[C@H]1CCc2c(ccc(O)c2O)C1 [Compound 17, (S)-N-propyl-N-[6-[2-(3,5-dihydroxy-4-methylphenyl)ethylamino]hexyl]-5,6-dihydroxy-1,2,3,4-tetrahydro-2-naphthylamine dihydrobromide] | 25 | 12 |
| Br.Br.CCCN(CCCCCCNCCc1ccc2[nH]c(=O)sc2c1)[C@H]1CCc2c(ccc(O)c2O)C1 [Compound 18, (S)-N-propyl-N-[6-[2-(2-oxo-3H-1,3-benzothiazol-6-yl)ethylamino]hexyl]-5,6-dihydroxy-1,2,3,4-tetrahydro-2-naphthylamine dihydrobromide] | 5 | 50 |

Further lines, results first:

| D2 -like (REA) potency ratio (EC50 of Ref. A/EC50 of tested compound) [1] | D1 -like (RSA) potency ratio (EC50 of Ref. A/EC50 of tested compound) [2] | SMILES |
| --- | --- | --- |
| 4 | 11 | Br.Br.CCCN(CCCCCCNCCc1ccc2sc(=O)[nH]c2c1)[C@H]1CCc2c(ccc(O)c2O)C1 [Compound 19, (S)-N-propyl-N-[6-[2-(2-oxo-3H-1,3-benzothiazol-5-yl)ethylamino]hexyl]-5,6-dihydroxy-1,2,3,4-tetrahydro-2-naphthylamine dihydrobromide] |
| 1.7 | 3 | Br.Br.CCCN(CCCCCCNCCc1cc(O)cc(Cl)c1)[C@H]1CCc2c(ccc(O)c2O)C1 [Compound 21, (S)-N-propyl-N-[6-[2-(3-chloro-5-hydroxyphenyl)ethylamino]hexyl]-5,6-dihydroxy-1,2,3,4-tetrahydro-2-naphthylamine dihydrobromide] |
| 10 | 33 | CCCN(CCCCCCNCCc1ccc(O)c(OC)c1)[C@H]1CCc2c(ccc(O)c2O)C1.Cl.Cl [Compound 26, (S)-N-propyl-N-[6-[2-(3-methoxy-4-hydroxyphenyl)ethylamino]hexyl]-5,6-dihydroxy-1,2,3,4-tetrahydro-2-naphthylamine dihydrochloride] |
| 4 | 25 | CCCN(CCCCCCNCCc1ccc(OC)c(O)c1)[C@H]1CCc2c(ccc(O)c2O)C1.Cl.Cl [Compound 27, (S)-N-propyl-N-[6-[2-(3-hydroxy-4-methoxyphenyl)ethylamino]hexyl]-5,6-dihydroxy-1,2,3,4-tetrahydro-2-naphthylamine dihydrochloride] |
